According to patent US9302999B2, “Substituted triazoles as herbicides” (E. I. DU PONT DE NEMOURS AND COMPANY, priority 2012, dated 2016):

Legend:
Assay type in all cases: in vivo
[1] = system: ducksalad (Heteranthera limosa); test: Test B flooded paddy: ducksalad; details: Flood; 250 g ai/ha; applied to paddy water at 2-leaf stage; visually evaluated after 13 to 15 days
Summary of the method: (§1)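 At two leaves, seedlings received the test compound via the paddy water, pots having been flooded 3 cm over the soil surface and kept so. Greenhouse-held for 13 to 15 days, then judged by eye against controls on a scale running 0 (no effect) to 100 (complete control).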

[2] = system: woolly cupgrass (Eriochloa villosa); test: Test C pre-/postemergence: woolly cupgrass
Summary of the method: (§2)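 Visual injury scored 0–100 (100 = complete control) against untreated controls after 13–15 greenhouse days. Surfactant-containing solvent formulations applied either to soil after sowing (loam/sand) or over 1- to 4-leaf plants, 2–18 cm tall.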

[3] = system: wild oat (Avena fatua); test: Test C pre-/postemergence: wild oat
Summary of the method: as §2

[4] = system: rice (Oryza sativa); test: Test B flooded paddy: rice; details: Flood; 250 g ai/ha; applied to paddy water at 2-leaf stage; visually evaluated after 13 to 15 days
Summary of the method: as §1

[5] = system: lambsquarters (Chenopodium album); test: Test C pre-/postemergence: lambsquarters
Summary of the method: as §2

[6] = system: foxtail, giant (giant foxtail, Setaria faberii); test: Test C pre-/postemergence: foxtail, giant
Summary of the method: as §2

[7] = system: surinam grass (Brachiaria decumbens); test: Test C pre-/postemergence: surinam grass
Summary of the method: as §2

[8] = system: soybean (Glycine max); test: Test C pre-/postemergence: soybean
Summary of the method: as §2

[9] = system: velvetleaf (Abutilon theophrasti); test: Test C pre-/postemergence: velvetleaf
Summary of the method: as §2

[10] = system: bermudagrass (Cynodon dactylon); test: Test C pre-/postemergence: bermudagrass
Summary of the method: as §2

[11] = system: corn (Zea mays); test: Test C pre-/postemergence: corn
Summary of the method: as §2

[12] = system: deadnettle (henbit deadnettle, Lamium amplexicaule); test: Test C postemergence: deadnettle
Summary of the method: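 Visual ratings of 0 (no effect) to 100 (complete control) were made against controls 13-15 days after a postemergence spray, with plants kept in a greenhouse. Plants were 2-18 cm tall (1- to 4-leaf stage) in Redi-Earth peat/vermiculite medium at treatment.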

[13] = system: sedge, umbrella (small-flower umbrella sedge Cyperus difformis); test: Test B flooded paddy: sedge, umbrella; details: Flood; 250 g ai/ha; applied to paddy water at 2-leaf stage; visually evaluated after 13 to 15 days
Summary of the method: as §1

[14] = Postemergence, 31 g ai/ha, scale 0 to 100 (0 no effect, 100 complete control)
[15] = Postemergence, 62 g ai/ha, scale 0 to 100 (0 no effect, 100 complete control)
[16] = Postemergence, 125 g ai/ha, scale 0 to 100, 0 no effect, 100 complete control
[17] = Postemergence, 250 g ai/ha, scale 0 to 100
[18] = 31 g ai/ha, scale 0 to 100 (0 no effect, 100 complete control)
[19] = 62 g ai/ha, scale 0 to 100 (0 no effect, 100 complete control)
[20] = 125 g ai/ha, scale 0 to 100, 0 no effect, 100 complete control
[21] = Preemergence, 31 g ai/ha, scale of 0 to 100, 0 is no effect, 100 is complete control
[22] = Preemergence, 62 g ai/ha, scale of 0 to 100, 0 is no effect, 100 is complete control
[23] = Preemergence, 125 g ai/ha, scale 0 to 100, 0 no effect, 100 complete control
[24] = Preemergence, 250 g ai/ha, scale 0 to 100, 0 no effect, 100 complete control

## Cc1nn(-c2ccnc(Cl)c2)nc1Cc1ccnc(C(F)(F)F)c1 [Compound 141]
[1]
  Plant response rating, Ducksalad (0 to 100 scale, 0 is no effect, 100 is complete control): 85
[2]; [14]
  Plant response rating, Cupgrass, Woolly: 15
[2]; [15]
  Plant response rating, Cupgrass, Woolly: 20
[2]; [16]
  Plant response rating, Cupgrass, Woolly: 30
[2]; [17]
  Plant response rating, Cupgrass, Woolly: 45
[3]; [14]
  Plant response rating, Oat, Wild: 10
[3]; [15]
  Plant response rating, Oat, Wild: 15
[3]; [16]
  Plant response rating, Oat, Wild: 45
[3]; [17]
  Plant response rating, Oat, Wild: 70
[4]
  Plant response rating, Rice (0 to 100 scale, 0 is no effect, 100 is complete control): 35
[5]; [14]
  Plant response rating, Lambsquarters: 98
[5]; [15]
  Plant response rating, Lambsquarters: 98
[5]; [16]
  Plant response rating, Lambsquarters: 98
[5]; [17]
  Plant response rating, Lambsquarters: 98
[6]; [14]
  Plant response rating, Foxtail, Giant: 10
[6]; [15]
  Plant response rating, Foxtail, Giant: 20
[6]; [16]
  Plant response rating, Foxtail, Giant: 45
[6]; [17]
  Plant response rating, Foxtail, Giant: 80
[7]; [14]
  Plant response rating, Surinam Grass: 15
[7]; [15]
  Plant response rating, Surinam Grass: 15
[7]; [16]
  Plant response rating, Surinam Grass: 30
[7]; [17]
  Plant response rating, Surinam Grass: 30
[8]; [14]
  Plant response rating, Soybean: 40
[8]; [15]
  Plant response rating, Soybean: 55
[8]; [16]
  Plant response rating, Soybean: 55
[8]; [17]
  Plant response rating, Soybean: 65
[9]; [14]
  Plant response rating, Velvetleaf: 40
[9]; [15]
  Plant response rating, Velvetleaf: 55
[9]; [16]
  Plant response rating, Velvetleaf: 60
[9]; [17]
  Plant response rating, Velvetleaf: 60
[10]; [14]
  Plant response rating, Bermudagrass: 15
[10]; [16]
  Plant response rating, Bermudagrass: 55
[10]; [17]
  Plant response rating, Bermudagrass: 95
[11]; [14]
  Plant response rating, Corn: 45
[11]; [15]
  Plant response rating, Corn: 45
[11]; [16]
  Plant response rating, Corn: 55
[11]; [17]
  Plant response rating, Corn: 60
[12]; [18]
  Plant response rating, Deadnettle: 100
[12]; [19]
  Plant response rating, Deadnettle: 100
[12]; [20]
  Plant response rating, Deadnettle: 100
[12]; 250 g ai/ha, scale 0 to 100
  Plant response rating, Deadnettle: 100
[13]
  Plant response rating, Sedge, Umbrella (0 to 100 scale, 0 is no effect, 100 is complete control): 85

## Cc1nn(-c2ccc(C(F)(F)F)c(F)c2)nc1Oc1ccnc(C(F)(F)F)c1 [Compound 148]
[1]
  Plant response rating, Ducksalad (0 to 100 scale, 0 is no effect, 100 is complete control): 85
[2]; [14]
  Plant response rating, Cupgrass, Woolly: 55
[2]; [15]
  Plant response rating, Cupgrass, Woolly: 55
[2]; [16]
  Plant response rating, Cupgrass, Woolly: 65
[2]; [17]
  Plant response rating, Cupgrass, Woolly: 75
[2]; [21]
  Plant response rating, Cupgrass, Woolly: 50
[2]; [22]
  Plant response rating, Cupgrass, Woolly: 90
[2]; [23]
  Plant response rating, Cupgrass, Woolly: 95
[2]; [24]
  Plant response rating, Cupgrass, Woolly: 98
[3]; [14]
  Plant response rating, Oat, Wild: 15
[3]; [15]
  Plant response rating, Oat, Wild: 45
[3]; [16]
  Plant response rating, Oat, Wild: 80
[3]; [17]
  Plant response rating, Oat, Wild: 90
[3]; [21]
  Plant response rating, Oat, Wild: 35
[3]; [22]
  Plant response rating, Oat, Wild: 85
[3]; [23]
  Plant response rating, Oat, Wild: 85
[3]; [24]
  Plant response rating, Oat, Wild: 85
[4]
  Plant response rating, Rice (0 to 100 scale, 0 is no effect, 100 is complete control): 45
[5]; [14]
  Plant response rating, Lambsquarters: 98
[5]; [15]
  Plant response rating, Lambsquarters: 98
[5]; [16]
  Plant response rating, Lambsquarters: 98
[5]; [17]
  Plant response rating, Lambsquarters: 98
[5]; [21]
  Plant response rating, Lambsquarters: 15
[5]; [22]
  Plant response rating, Lambsquarters: 25
[5]; [23]
  Plant response rating, Lambsquarters: 65
[5]; [24]
  Plant response rating, Lambsquarters: 85
[6]; [14]
  Plant response rating, Foxtail, Giant: 10
[6]; [15]
  Plant response rating, Foxtail, Giant: 35
[6]; [16]
  Plant response rating, Foxtail, Giant: 35
[6]; [17]
  Plant response rating, Foxtail, Giant: 75
[6]; [21]
  Plant response rating, Foxtail, Giant: 98
[6]; [22]
  Plant response rating, Foxtail, Giant: 100
[6]; [23]
  Plant response rating, Foxtail, Giant: 100
[6]; [24]
  Plant response rating, Foxtail, Giant: 100
[7]; [14]
  Plant response rating, Surinam Grass: 20
[7]; [15]
  Plant response rating, Surinam Grass: 20
[7]; [16]
  Plant response rating, Surinam Grass: 25
[7]; [17]
  Plant response rating, Surinam Grass: 30
[7]; [21]
  Plant response rating, Surinam Grass: 60
[7]; [22]
  Plant response rating, Surinam Grass: 75
[7]; [23]
  Plant response rating, Surinam Grass: 75
[7]; [24]
  Plant response rating, Surinam Grass: 100
[8]; [14]
  Plant response rating, Soybean: 45
[8]; [15]
  Plant response rating, Soybean: 45
[8]; [16]
  Plant response rating, Soybean: 80
[8]; [17]
  Plant response rating, Soybean: 90
[8]; [21]
  Plant response rating, Soybean: 5
[8]; [22]
  Plant response rating, Soybean: 10
[8]; [23]
  Plant response rating, Soybean: 20
[8]; [24]
  Plant response rating, Soybean: 30
[9]; [14]
  Plant response rating, Velvetleaf: 50
[9]; [15]
  Plant response rating, Velvetleaf: 50
[9]; [16]
  Plant response rating, Velvetleaf: 80
[9]; [17]
  Plant response rating, Velvetleaf: 85
[9]; [21]
  Plant response rating, Velvetleaf: 15
[9]; [22]
  Plant response rating, Velvetleaf: 55
[9]; [23]
  Plant response rating, Velvetleaf: 70
[9]; [24]
  Plant response rating, Velvetleaf: 80
[10]; [14]
  Plant response rating, Bermudagrass: 10
[10]; [15]
  Plant response rating, Bermudagrass: 30
[10]; [16]
  Plant response rating, Bermudagrass: 50
[10]; [17]
  Plant response rating, Bermudagrass: 55
[10]; [21]
  Plant response rating, Bermudagrass: 98
[10]; [22]
  Plant response rating, Bermudagrass: 100
[10]; [23]
  Plant response rating, Bermudagrass: 100
[10]; [24]
  Plant response rating, Bermudagrass: 100
[11]; [14]
  Plant response rating, Corn: 25
[11]; [15]
  Plant response rating, Corn: 30
[11]; [16]
  Plant response rating, Corn: 55
[11]; [17]
  Plant response rating, Corn: 60
[11]; [21]
  Plant response rating, Corn: 5
[11]; [22]
  Plant response rating, Corn: 10
[11]; [23]
  Plant response rating, Corn: 15
[11]; [24]
  Plant response rating, Corn: 45
[12]; [18]
  Plant response rating, Deadnettle: 95
[12]; [19]
  Plant response rating, Deadnettle: 95
[12]; [20]
  Plant response rating, Deadnettle: 100
[12]; 250 g ai/ha, scale 0 to 100
  Plant response rating, Deadnettle: 100
[13]
  Plant response rating, Sedge, Umbrella (0 to 100 scale, 0 is no effect, 100 is complete control): 85
